What was measured:
IMP-1 = IMP-1 (Serratia marcescens, UniProt P52699); assay: biochemical; assay type: biochemical; settings: fluorescence assay, CCF2-FA substrate, 2 pM enzyme, 2 hours at 25° C.; read-out: IMP-1 IC50
Procedure: (§1) Enzyme Activity: Determination of IC50
(§2) The Class B enzyme activities were measured in the presence of the test inhibitor in a fluorescence assay against a commercially available substrate consisting of a cephalosporin core linking 7-hydroxycoumarin to fluorescein (CCF2-FA). […] In a 384-well microplate, the test inhibitor was incubated with the metallo-β-lactamase enzyme and the substrate for 2 hours at 25° C. […] The IC50 value was determined from semi-logarithmic plots of enzyme inhibition versus inhibitor concentration, with a curve generated using a 4-parameter fit.

NDM-1 = NDM-1 (Klebsiella pneumoniae, UniProt C7C422); assay: biochemical; assay type: biochemical; settings: fluorescence assay, CCF2-FA substrate, 1 pM enzyme, 2 hours at 25° C.; read-out: NDM-1 IC50
Procedure: as §1, §2

[1] = tested on: Pseudomonas aeruginosa efflux− (MB9799), IMP-1; assay type: cell-based; settings: C, D serine β-lactamase inhibitor closely related to relebactam; for P. aeruginosa expressing IMP-1, efflux − (MB9799) MITC95: concentration restoring susceptibility to imipenem at 2 μg/mL in the presence of a class A; for Concentration of metallo-β-lactamase inhibitor which restores susceptibility of efflux − (MB9799) strain to imipenem: imipenem at 2 μg/mL, in the presence of a class A
Text: (§3) The strain background was Pseudomonas aeruginosa PAO1.
(§4) The strain set was then used as a pair to determine the effect of metallo-β-lactamase inhibitors of Formula I on the MIC of imipenem and/or ceftazidime. A fixed concentration of antibiotic was included in standard microbroth MIC tests, usually at the CLSI (Clinical and Laboratory Standards Institute) breakpoint concentration. A fixed amount of a class A/C beta-lactamase inhibitor was also included to inhibit the resident Pseudomonas AmpC enzyme. A serial titration of the metallo-β-lactamase inhibitor was included and the concentration of metallo-β-lactamase inhibitor which restores susceptibility of the strain to the included antibiotic was recorded. That concentration of metallo-β-lactamase inhibitor was then compared between the two strains to determine the fold difference between the efflux+ (MB9798) and efflux− (MB9799) strains. This was taken as an indication of the extent to which the MBLi is subject to efflux.

[2] = tested on: Pseudomonas aeruginosa efflux+ (MB9798), IMP-1; assay type: cell-based; design: Concentration of metallo-β-lactamase inhibitor which restores susceptibility of efflux + (MB9798) strain to imipenem: unit not given here; settings: C, D serine β-lactamase inhibitor closely related to relebactam; for P. aeruginosa expressing IMP-1, efflux + (MB9798) MITC95: concentration restoring susceptibility to imipenem at 2 μg/mL in the presence of a class A; for Concentration of metallo-β-lactamase inhibitor which restores susceptibility of efflux + (MB9798) strain to imipenem: imipenem at 2 μg/mL, in the presence of a class A
Text: as §3, §4

[3] = tested on: Serratia marcescens expressing IMP-1 (CL5741); assay type: cell-based; settings: for Serratia marcescens MITC95: IMP-1 strain CL5741, with imipenem 1 μg/ml, 95% inhibition of growth
Procedure: (§5) Antibiotic Potentiation Activity: Determination of Synergistic Concentration
(§6) The bacterial strains tested included the clinical strains Escherichia coli expressing NDM-1 (CLB30005, CLB30016), Serratia marcescens expressing IMP-1 (CL5741), and Klebsiella pneumoniae expressing VIM-1 (IHMA599644). Inhibitor activity was measured in the presence and absence of imipenem in a 384-well microplate.
(§7) The clinical strains CLB30016, CL5741 and IHMA599644 were grown on trypticase soy agar containing 5% sheep's blood. The bacteria on agar plates were incubated at 35° C. with humidity overnight. The following day, individual colonies from each clinical strain were picked and resuspended in 5 ml saline to attain an OD600 of […], for CLB30016, CL5741 and IHMA599644, respectively. These were further diluted 1:100 into 1.1×CAMHB and used to inoculate the test wells as described below.
(§8) Imipenem in 10 mM 3-(N-morpholino)propanesulfonic acid (MOPS, pH 7) was stored in single use aliquots at −80° C. […] On the day of the assay, 4 μl of antibiotic was added to 45 ul of bacteria followed by 1 μl of test compound and mixed by pipetting and with an orbital shaker. The concentration of antibiotic used in the assay was 1 μg/ml. Microplates were covered and incubated at 35° C. for 22 hours to 24 hours. At the end of the incubation, absorbance was determined using a spectrophotometer.

[4] = tested on: Klebsiella pneumoniae expressing VIM-1 (IHMA599644); assay type: cell-based; settings: for Klebsiella pneumoniae MITC95: VIM-1 strain IHMA599644, with imipenem 1 μg/ml, 95% inhibition of growth
Procedure: as §5, §6, §7, §8

[5] = tested on: Escherichia coli expressing NDM-1 (CLB30005, CLB30016); assay type: cell-based; settings: with imipenem 1 μg/ml; for Escherichia coli MITC95: NDM-1 strain, 95% inhibition of growth
Procedure: as §5, §6, §7, §8

[6] = with imipenem 1 μg/ml, 95% inhibition of bacterial growth

Sequence of NDM-1 (C7C422 whole entry, looked up, species assumed): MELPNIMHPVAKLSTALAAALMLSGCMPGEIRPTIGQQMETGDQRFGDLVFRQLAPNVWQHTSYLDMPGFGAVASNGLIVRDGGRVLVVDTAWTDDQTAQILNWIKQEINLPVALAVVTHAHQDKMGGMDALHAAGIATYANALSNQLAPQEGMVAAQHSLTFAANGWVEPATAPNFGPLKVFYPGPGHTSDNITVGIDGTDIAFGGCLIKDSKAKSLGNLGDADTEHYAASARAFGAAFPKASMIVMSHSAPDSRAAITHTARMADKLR
Sequence of IMP-1 (P52699 whole entry, looked up, species assumed): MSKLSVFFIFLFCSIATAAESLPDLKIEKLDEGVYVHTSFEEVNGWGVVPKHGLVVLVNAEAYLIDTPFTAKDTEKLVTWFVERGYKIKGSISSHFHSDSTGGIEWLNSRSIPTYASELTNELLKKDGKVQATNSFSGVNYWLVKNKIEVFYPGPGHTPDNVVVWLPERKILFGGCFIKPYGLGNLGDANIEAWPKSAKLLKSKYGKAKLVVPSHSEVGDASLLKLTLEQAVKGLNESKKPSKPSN

SMILES | IC50 (IMP-1) | IC50 (NDM-1) | P. aeruginosa expressing IMP-1, efflux − (MB9799) MITC95 [1] | P. aeruginosa expressing IMP-1, efflux + (MB9798) MITC95 [2] | Serratia marcescens expressing IMP-1 (CL5741) MITC95 [3, 6] | Klebsiella pneumoniae expressing VIM-1 (IHMA599644) MITC95 [4, 6] | Escherichia coli expressing NDM-1 (CLB30016) MITC95 ([5]; 95% inhibition of bacterial growth) | Serratia marcescens MITC95 [3] | Klebsiella pneumoniae MITC95 [4] | Escherichia coli MITC95 [5] | Concentration of metallo-β-lactamase inhibitor which restores susceptibility of efflux − (MB9799) strain to imipenem [1] | Concentration of metallo-β-lactamase inhibitor which restores susceptibility of efflux + (MB9798) strain to imipenem [2]
NCCNS(=O)(=O)c1ccc(-c2cccc(-c3nc[nH]n3)c2)c(-c2nn[nH]n2)c1S(N)(=O)=O [Example 224, N^4-(2-aminoethyl)-2-(2H-tetrazol-5-yl)-3′-(1H-1,2,4-triazol-3-yl)-[1,1′-biphenyl]-3,4-disulfonamide] | 0.412 nM | 0.142 nM | 0.7813 µM | 1.563 µM | 1.563 µM | 3.125 µM | 1.563 µM |  |  |  |  | 
C[N+]1(CCN)CC[C@@H](NS(=O)(=O)c2ccc(-c3cccc4[nH]c(N)nc34)c(-c3nn[nH]n3)c2S(N)(=O)=O)C1.O=CO[O-] (stereo partly drawn) [Example 248, (3R)-3-{[4-(2-amino-1H-1,3-benzodiazol-4-yl)-2-sulfamoyl-3-(2H-1,2,3,4-tetrazol-5-yl)benzene]sulfonamido}-1-(2-aminoethyl)-1-methylpyrrolidin-1-ium; methaneperoxoate] | 0.147 nM | 0.0105 nM | 0.7813 µM | 0.7813 µM |  |  |  | 1.563 µM | 0.7813 µM | 0.3906 µM |  | 
NCC(=O)NC1C=C(c2ccc(S(=O)(=O)N[C@@H]3CCNC3)c(S(N)(=O)=O)c2-c2nn[nH]n2)CCC1 (stereo partly drawn) [Example 269, 2-Amino-N-(4′-(N—((R)-pyrrolidin-3-yl)sulfamoyl)-3′-sulfamoyl-2′-(2H-tetrazol-5-yl)-3,4,5,6-tetrahydro-[1,1′-biphenyl]-3-yl)acetamide] | 4.03 nM | 1.17 nM | 1.563 µM | 3.125 µM |  |  |  | 1.563 µM | 3.125 µM | 1.563 µM |  | 
Cn1nnc2c(-c3ccc(S(=O)(=O)N[C@H]4CCNC4)c(S(N)(=O)=O)c3-c3nn[nH]n3)cccc21 [Example 293, (S)-4-(1-methyl-1H-benzo[d][1,2,3]triazol-4-yl)-N1-(pyrrolidin-3-yl)-3-(2H-tetrazol-5-yl)benzene-1,2-disulfonamide] | 1.3 nM | 0.285 nM | 1.563 µM | 3.125 µM |  |  |  | 3.125 µM | 3.125 µM | 3.125 µM |  | 
NC[C@H](N)CNS(=O)(=O)c1ccc(-c2cccn3ccnc23)c(-c2nn[nH]n2)c1S(N)(=O)=O [Example 374, (S)-N1-(2,3-diaminopropyl)-4-(imidazo[1,2-a]pyridin-8-yl)-3-(2H-tetrazol-5-yl)benzene-1,2-disulfonamide] | 0.278 nM | 0.157 nM | 1.563 µM | 1.563 µM |  |  |  | 3.125 µM | 6.25 µM | 0.7813 µM |  | 
Nc1nc2c(-c3ccc(S(=O)(=O)NCC4(O)CNC4)c(S(N)(=O)=O)c3-c3nn[nH]n3)cccc2s1 [Example 387, 4-(2-amino-1,3-benzothiazol-4-yl)-N^1-[(3-hydroxyazetidin-3-yl)methyl]-3-(2H-tetrazol-5-yl)benzene-1,2-disulfonamide] | 0.244 nM | 0.0646 nM | 1.563 µM | 0.7813 µM |  |  |  | 1.563 µM | 6.25 µM | 1.563 µM |  | 
C[N+](C)(C)CCCNS(=O)(=O)c1ccc(-c2cccc3sc(N)nc23)c(-c2nnn[nH]2)c1S(N)(=O)=O.O=C([O-])C(F)(F)F [Example 392, 3-({[4-(2-amino-1,3-benzothiazol-4-yl)-2-sulfamoyl-3-(1H-tetrazol-5-yl)phenyl]sulfonyl}amino)-N,N,N-trimethylpropan-1-aminium trifluoroacetate] | 0.221 nM | 0.0318 nM |  |  |  |  |  | 3.125 µM | 12.5 µM | 3.125 µM | 3.125 | 1.563
C[C@H](CN)NS(=O)(=O)c1ccc(-c2cc(F)cc3[nH]c(N)nc23)c(-c2nn[nH]n2)c1S(N)(=O)=O [Example 396] | 0.221 nM | 0.0269 nM |  |  |  |  |  | 0.3906 µM | 3.125 µM | 0.7813 µM | 1.563 | 0.7813
C[C@@H](CN)NS(=O)(=O)c1ccc(-c2cc(F)cc3[nH]c(N)nc23)c(-c2nn[nH]n2)c1S(N)(=O)=O [Example 397] | 1.6 nM | 0.161 nM |  |  |  |  |  | 0.7813 µM | 3.125 µM | 3.125 µM | 1.563 | 1.563
Nc1nc2c(-c3ccc(S(=O)(=O)N[C@H]4CCNC4)c(S(N)(=O)=O)c3-c3nn[nH]n3)cc(F)cc2[nH]1 [Example 399] | 0.533 nM | 0.0822 nM |  |  |  |  |  | 1.563 µM | 1.563 µM | 0.7813 µM | 0.7813 | 0.7813
NC[C@@H](O)CNS(=O)(=O)c1ccc(-c2ccnc(N)c2)c(-c2nn[nH]n2)c1S(N)(=O)=O [Example 419] | 1.51 nM | 0.496 nM |  |  |  |  |  | 0.7813 µM | 1.563 µM | 0.1953 µM | 0.7813 | 1.563
C[C@H](N)CNS(=O)(=O)c1ccc(-c2ccnc(N)c2)c(-c2nn[nH]n2)c1S(N)(=O)=O [Example 421] | 1.14 nM | 0.196 nM |  |  |  |  |  | 0.7813 µM | 1.563 µM | 0.3906 µM | 0.7813 | 1.563
C[C@@H](N)CNS(=O)(=O)c1ccc(-c2ccnc(N)c2)c(-c2nn[nH]n2)c1S(N)(=O)=O [Example 422] | 0.982 nM | 0.386 nM |  |  |  |  |  | 0.7813 µM | 1.563 µM | 0.3906 µM | 0.7813 | 1.563

From patent US10221163B2 (priority 2015, dated 2019)
